US20060251574A1, “Cytotoxins and diagnostic imaging agents comprising hsp90 ligands” (priority 2002, published 2006)

Tested on: HSP90
Method: Purified native HSP90 protein (Stressgen) or cell lysates prepared in lysis buffer (20 mM Hepes, pH 7.3, 1 mM EDTA, 5 mM MgCl2, 100 mM KCl) were incubated in the absence or presence of CF7 (17-AAG) or test compound for 15 min at 4° C. […] BioMag™ streptavidin magnetic beads were then added to the mixture, and the reaction was incubated by rotating for another 1 hr at 4° C. Tubes were placed on a magnetic rack, and the unbound supernatant removed. The magnetic beads were washed three times in lysis buffer, and the washes discarded. SDS-PAGE sample buffer was added to the beads and boiled for 5 min at 95° C. Samples were analyzed on 10% SDS protein gels (Novex), and then Western blots using anti-HSP90 monoclonal antibody (Stressgen SPA-830). The bands in the Western Blots were quantitated using the Bio-rad Fluor-S Imager, and the % inhibition of binding of CF7 or test compound calculated. The IC50 reported is the concentration of the compound needed to cause half-maximal inhibition of binding. For experiments that utilized shocked HSP90, the purified HSP90 native protein was incubated for 15 min at 90° C. For experiments that utilized bis-ANS treated HSP90, the purified HSP90 protein was incubated with bis-ANS (Molecular Probes) for 30 min at 37° C.

Substance: 17-allylamino-geldanamycin [17-AAG]
- apparent binding affinity for HSP90, tumor cells versus normal cells or purified HSP90 (FIG. 4) (BT474 lysate vs fibroblasts, RPTEC, purified HSP90): higher apparent binding affinity for HSP90 from tumor cells (BT474) than normal cells (fibroblasts, RPTEC) or purified HSP90 alone
- apparent binding affinity for HSP90, high Her2 expressing cells versus normal cells, heat-shocked or bis-ANS treated HSP90 (FIG. 5) (SKOY-3, SKBR-3, N87 lysates): higher apparent binding affinity for HSP90 from the specific high Her2 expressing cells, SKOY-3, SKBR-3, and N87, than from normal cells, heat-shocked HSP90, or bis-ANS treated HSP90
